Data as given in article PMC11357446, “Searching for Novel HDAC6/Hsp90 Dual Inhibitors with Anti-Prostate Cancer Activity: In Silico Screening and In Vitro Evaluation” (Pharmaceuticals, 2024).
Read-outs that look alike come from different tables or passages of the source.

How the values were obtained:
HDAC6 = HDAC6 (UniProt ID: Q9UBN7); set-up: method as in ChEMBL [62]; conditions: ChEMBL record on recombinant protein; ref ChEMBL [62]; read-out: HDAC6 IC50 (Standard Value); cited from earlier work
Hsp90 = Hsp90 (UniProt ID: P07900); set-up: method as in ChEMBL [62]; conditions: ChEMBL record on recombinant protein; ref ChEMBL [62]; read-out: Hsp90 Ki (Standard Value); cited from earlier work
[1] = tested on: PC-3 prostate cancer cells; test: Cell viability assay (MTT) on PC-3 cells; assay type: cell-based, human; conditions: Homo sapiens, PC-3, 72 h, read-out: PC-3 GI50
Procedure: (§1) The human prostate cancer cell line PC-3 (ATCC Cat# CRL-1435) was grown in Ham’s F12 (Biowest, Nuaillé, France) medium, while the human prostate cancer cell line LNCaP (ATCC Cat# CRL-1740) was grown in RPMI 1640 (Biowest, Nuaillé, France) medium. Both media were supplemented with 10% Fetal Bovine Serum (FBS, Gibco, Fisher Scientific Italia, Segrate, Italy), 2 mM glutamine, 100 U/mL penicillin, and 100 μg/mL streptomycin. PC-3 and LNCaP cells were maintained at 37 °C in a humidified 5% CO2 atmosphere.
(§2) PC-3 and LNCaP cells were seeded at a density of 4000 and 6000 cells/well into a 96-well plate, respectively, together with a calibration curve of known cell numbers. The following day, the cells were treated with the indicated test compounds at different concentrations starting at 75μM with 2-fold serial dilutions. Cell viability was evaluated after 72h by colorimetric MTT (PC-3) or PrestoBlue™ (LNCaP) cell viability reagents. A total of 0.5 mg/mL of thiazolyl blue tetrazolium bromide (MTT) (Sigma-Aldrich, St. Louis, MO, USA) in Ham’s F12 medium was added to the wells, and the plate was incubated at 37 °C for 2 h. Medium containing unconverted MTT was removed, and 100 μL of MTT solvent (4 mM HCl, 0.1% NP40, in isopropyl alcohol) was added to the wells in order to solubilize MTT crystals. After 15 min of incubation at room temperature, the absorbance values at 570 nm were obtained with a Multiskan FC Microplate Photometer (Thermo Fisher Scientific, Waltham, MA, USA). PrestoBlue reagent (#A13261, Thermo Fisher Scientific, Waltham, MA, USA) was added to the medium (1:10 v/v) and incubated for 1 h at 37 °C. Cell viability was calculated by quantifying PrestoBlue reduction by measuring the absorbance at 570 and 620 nm, according to the manufacturer’s protocol. The viability of untreated cells was arbitrarily set at 100%, and the concentration at which cellular growth is inhibited by 50% (GI50) was determined. Three independent experiments were performed.

HDAC6 recombinant enzyme = target: T1, HDAC6 recombinant enzyme (Homo sapiens, UniProt Q9UBN7); test: Fluorimetric HDAC6 assay; assay type: biochemical; conditions: singlicate
T1 sequence (Q9UBN7 1-1215): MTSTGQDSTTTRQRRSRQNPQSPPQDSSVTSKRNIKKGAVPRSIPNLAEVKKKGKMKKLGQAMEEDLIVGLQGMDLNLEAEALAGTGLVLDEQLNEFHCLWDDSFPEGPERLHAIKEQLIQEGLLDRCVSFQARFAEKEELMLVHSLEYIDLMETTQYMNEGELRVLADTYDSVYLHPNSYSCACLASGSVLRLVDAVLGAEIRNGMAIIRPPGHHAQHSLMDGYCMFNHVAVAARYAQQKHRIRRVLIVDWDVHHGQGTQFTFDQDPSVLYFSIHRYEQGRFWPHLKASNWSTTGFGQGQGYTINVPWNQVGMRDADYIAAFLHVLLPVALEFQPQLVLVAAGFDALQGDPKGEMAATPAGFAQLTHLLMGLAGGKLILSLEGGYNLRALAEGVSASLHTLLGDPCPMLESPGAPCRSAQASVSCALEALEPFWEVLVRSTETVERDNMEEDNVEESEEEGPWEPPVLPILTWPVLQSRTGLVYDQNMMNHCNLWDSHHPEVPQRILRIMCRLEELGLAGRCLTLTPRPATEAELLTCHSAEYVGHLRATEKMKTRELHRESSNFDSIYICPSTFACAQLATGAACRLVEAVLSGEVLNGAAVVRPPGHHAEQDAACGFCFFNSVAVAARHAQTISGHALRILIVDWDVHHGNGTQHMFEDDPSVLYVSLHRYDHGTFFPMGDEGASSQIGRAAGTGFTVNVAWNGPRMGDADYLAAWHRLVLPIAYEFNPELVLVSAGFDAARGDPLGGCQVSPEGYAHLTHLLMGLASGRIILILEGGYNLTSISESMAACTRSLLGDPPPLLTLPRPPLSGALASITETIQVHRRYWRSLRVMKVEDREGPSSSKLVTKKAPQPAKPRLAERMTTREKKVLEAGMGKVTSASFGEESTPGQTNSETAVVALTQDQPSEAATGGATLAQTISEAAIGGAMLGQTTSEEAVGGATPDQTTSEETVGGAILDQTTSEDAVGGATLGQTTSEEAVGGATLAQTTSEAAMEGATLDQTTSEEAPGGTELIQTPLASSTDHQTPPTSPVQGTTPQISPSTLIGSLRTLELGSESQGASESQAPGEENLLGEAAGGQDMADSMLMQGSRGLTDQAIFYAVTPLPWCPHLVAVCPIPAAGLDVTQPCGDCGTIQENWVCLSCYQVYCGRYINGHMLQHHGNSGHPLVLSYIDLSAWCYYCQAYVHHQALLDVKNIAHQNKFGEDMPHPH
Procedure: In vitro assessments of compounds on the HDAC6 enzyme were performed, as described in our previous works. […] The blank employed for curve fitting was evaluated on a solution of the buffer containing a concentration of […] of DMSO. IC50 values were calculated by using the GraphPad Prism 4 program based on a sigmoidal dose–response equation.

[2] = tested on: LNCaP prostate cancer cells; test: Cell viability assay (PrestoBlue) on LNCaP cells; assay type: cell-based, human; conditions: Homo sapiens, LNCaP, 72 h, read-out: LNCaP GI50
Procedure: as §1, §2

[3] = tested on: acetylated tubulin (Ac-Tub) in LNCaP cells; test: Western blot of acetylated α-Tubulin in LNCaP cells; assay type: cell-based, human; conditions: 24 h at GI50 concentration, normalized with Tubulin
Procedure: To assess whether the observed antiproliferative activity of the selected compounds was a consequence of HDAC6-targeting, we examined the effect of the cell treatments on the expression levels of acetylated tubulin (Ac-Tub), a well-known HDAC6 target. LNCaP and PC-3 cells were treated with the tested compounds at their GI50 concentrations, and SDS-PAGE and western blot were performed. In addition, the acetylation levels of histone H3, which are mainly regulated by HDAC1, were also evaluated in order to exclude potential class I-HDAC off-target activities. We used Tubastatin-A and Geldanamycin as reference controls for cellular effects resulting from HDAC6- and Hsp90-inhibition, respectively. The results in Figure 2 show a significant increase in α-Tubulin acetylation in LNCaP cells after treatments with compounds 8, 11 and 18. Indeed, these compounds triggered a 2.9-, 5.1-, and 2.5-fold increase, respectively, compared to the control (DMSO). […].
Figure 2 Western blot analysis and relative quantification of the expression levels of acetylated-Tubulin (Ac-TUB), acetylated H3 (Ac-H3), and HSP70 in LNCaP (A,B) and PC-3 (C,D) cells treated for 24 h at GI50 concentration. Tubastatin-A was used as HDAC6-specific positive control, Geldanamycin (GELDA) as HSP90-specific positive control, and SAHA as pan-HDAC inhibitor. Protein expression was normalized with Tubulin levels (Ac-TUB and HSP70) or total H3 (Ac-H3). Quantification is reported as fold change in treated cells versus DMSO control (CTR), arbitrarily set at 1 (one sample t-test p-values: * p < 0.05, ** p < 0.01, *** p < 0.001, **** p < 0.0001; n = 3).
Cell treatment. PC-3 and LNCaP cells were grown in 12-well tissue-culture plates and treated with test compounds at the evaluated GI50 concentration for each candidate inhibitor for 24 h. DMSO was used as a negative control, while Tubastatin-A and Geldanamycin were used as positive controls for HDAC6 and Hsp90 inhibition, respectively. Vorinostat (SAHA) was used as a pan-HDACi control. […] Protein quantitation was performed with Pierce Detergent Compatible Bradford Assay (#23246, Thermo Fisher Scientific, MA, USA), and equivalent amounts of cellular extracts were resolved by SDS-PAGE, transferred to PVDF or Nitrocellulose membrane with Trans-Blot Turbo Transfer System (Bio-Rad, Hercules, CA, USA), and immunoblotted with the following primary antibodies, diluted 1:1000 in 1× TBS with 1 mg/mL BSA: Anti-Histone H3 (#PA5-16183, Invitrogen, Thermo Fisher Scientific, MA, USA), Anti-acetylated histone H3 (#sc-518011, Santa Cruz Biotechnology, Inc., Dallas, TX, USA), Anti-Tubulin (#E-AB-20073, Elabscience, Houston, TX, USA), Anti-acetylated α-tubulin (#sc-23950, Santa Cruz), and Anti-HSP70 (#4872S, Cell Signaling Technology, Inc., Danvers, MA, USA). […]

[4] = 72 h treatment, MTT, mean of three independent experiments ± SEM
[5] = 72 h treatment, PrestoBlue, mean of three independent experiments ± SEM

Structure (SMILES) | IC50 (HDAC6) | other results
O=C(/C=C/c1ccc2c(c1)C(=O)N(Cc1ccccc1)C2)NO [CHEMBL247217] | 0.23 µM | –
CC(C)(C)c1ccc(CN2Cc3ccc(/C=C/C(=O)NO)cc3C2=O)cc1 [CHEMBL247218] | 0.99 µM | –
O=C(NO)c1ccc(CN2C(=O)CNC(=O)[C@H]2Cc2c[nH]c3ccccc23)cc1 [CHEMBL481719] | 0.11 µM | –
O=C(Cc1ccc(-c2noc(C(F)(F)F)n2)cc1)N1CCOCC1 [CHEMBL3688148] | 5.5 µM | –
O=C(NCc1ccc(CN2CCOCC2)cc1)c1ccc(-c2noc(C(F)(F)F)n2)cc1 [CHEMBL3692580] | 5.7 µM | –
O=C(Nc1ccncc1)c1ccc(-c2noc(C(F)(F)F)n2)cc1 [CHEMBL3692583] | 2.1 µM | –
O=C(Nc1cccnc1)c1ccc(-c2noc(C(F)(F)F)n2)cc1 [CHEMBL3692584] | 4.8 µM | –
O=C(NC1CCCCC1O)c1ccc(-c2noc(C(F)(F)F)n2)cc1 (centres unmarked) [CHEMBL3692597] | 7.1 µM | –
COc1cc(NC(=O)c2ccc(-c3noc(C(F)(F)F)n3)cc2)ccn1 [CHEMBL3692603] | 8.3 µM | –
Cc1cc(NC(=O)c2ccc(-c3noc(C(F)(F)F)n3)cc2)cc(C)n1 [CHEMBL3692604] | 5.3 µM | –
N#Cc1cc(NC(=O)c2ccc(-c3noc(C(F)(F)F)n3)cc2)ccn1 [CHEMBL3692609] | 6.1 µM | –
O=C(Nc1ccnc(C(F)(F)F)c1)c1ccc(-c2noc(C(F)(F)F)n2)cc1 [CHEMBL3692610] | 8.6 µM | –
Cc1cc(NC(=O)c2ccc(-c3noc(C(F)(F)F)n3)cc2F)cc(C)n1 [CHEMBL3692624] | 2.5 µM | –
C[C@H](CN1CCCCC1)NC(=O)c1ccc(-c2noc(C(F)(F)F)n2)cc1F [CHEMBL3692663] | 3 µM | –
C[C@H](CN1CCOCC1)NC(=O)c1ccc(-c2noc(C(F)(F)F)n2)cc1 [CHEMBL3692680] | 6.7 µM | –
C[C@H](CN1CCOCC1)NC(=O)c1ccc(-c2noc(C(F)(F)F)n2)cc1F [CHEMBL3692681] | 3.2 µM | –
CC(C)c1nc2ccccc2n1Cc1ccc(C(=O)NO)cc1 [CHEMBL3926575] | 0.047 µM | –
Cc1c(C)n(Cc2ccc(C(=O)NO)cc2)c2ccccc12 [CHEMBL3971436] | 0.00408 µM | –
CCNC(=O)c1noc(-c2cc(Cl)c(O)cc2O)c1-c1ccc(CN2CCOCC2)cc1C [CHEMBL4060353] | – | Ki (Hsp90): 0.032 µM
CC(C)CN1CC(=O)N2Cc3c(c4ccccc4n3Cc3ccc(C(=O)NO)cc3)CC2C1=O (centres unmarked) [CHEMBL4284297] | 0.00378 µM | –
CN1CC(=O)N2Cc3c(c4ccccc4n3Cc3ccc(C(=O)NO)cc3)CC2C1=O (centres unmarked) [CHEMBL4292944] | 0.0136 µM | –
CC(C)(C)c1cc2ccccc2n1Cc1ccc(C(=O)NO)cc1 [CHEMBL4468860] | 2 µM | –
N#Cc1ccc(NC(=O)c2cccc(-c3noc(C(F)(F)F)n3)c2)c(O)c1 [Compound 4] | – | GI50 [1, 4]: 9.5 ± 0.5 µM; IC50 (HDAC6 recombinant enzyme): 17 µM; GI50 [2, 5]: 9.5 ± 0.7 µM
COC1=C2C[C@@H](C)C[C@H](OC)[C@H](O)[C@@H](C)/C=C(\C)[C@H](OC(N)=O)[C@@H](OC)/C=C\C=C(/C)C(=O)NC(=CC1=O)C2=O [Geldanamycin] | – | GI50 [1, 4]: 0.03 ± 0.02 µM; GI50 [2, 5]: 0.05 ± 0.02 µM
O=C(CCCCCCC(=O)Nc1ccccc1)NO [SAHA, Vorinostat] | – | GI50 [1]: 1.9 ± 0.2 µM; GI50 [2]: 1.3 ± 0.3 µM
CN1CCc2c(c3ccccc3n2Cc2ccc(C(=O)NO)cc2)C1 [Tubastatin-A] | – | GI50 [1, 4]: 11.1 ± 1.6 µM; α-Tubulin acetylation, fold increase compared to the control (DMSO) [3]: 3.3 fold; GI50 [2, 5]: 5.9 ± 1.5 µM
